{"source": "PubChem BioAssay (NCI)", "test_in_all_cases": "inhibition of tumour cell growth, NCI panel, 48 h", "key": {"[1]": {"tested_on": "HS 578T breast"}, "[2]": {"tested_on": "IGROV1 ovarian"}, "[3]": {"tested_on": "K-562 leukemia"}, "[4]": {"tested_on": "MDA-MB-231 breast"}, "[5]": {"tested_on": "OVCAR-4 ovarian"}, "[6]": {"tested_on": "RXF 393 renal"}, "[7]": {"tested_on": "SK-MEL-28 melanoma"}, "[8]": {"tested_on": "SK-OV-3 ovarian"}, "[9]": {"tested_on": "T-47D breast"}, "[10]": {"tested_on": "UACC-62 melanoma"}}, "note": "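Method: 48-hour compound exposure of cells in 96-well plates, five concentrations, linear interpolation of endpoints. Here, GI50 denotes the concentration required for 50% inhibition of growth. TGI denotes the concentration required for complete inhibition of growth.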", "data": [{"smiles": "Fc1ccc(/C=N/n2c(-c3ccc(F)c(Cl)c3)n[nH]c2=S)cc1", "values": [{"measurement": "GI50", "setting": "[1]", "value": 28.8, "unit": "µM"}, {"measurement": "TGI", "setting": "[1]", "value": 97.3, "unit": "µM"}, {"measurement": "GI50", "setting": "[2]", "value": 20.6, "unit": "µM"}, {"measurement": "TGI", "setting": "[2]", "value": 48.8, "unit": "µM"}, {"measurement": "GI50", "setting": "[3]", "value": 19.3, "unit": "µM"}, {"measurement": "TGI", "setting": "[3]", "value": 36.6, "unit": "µM"}, {"measurement": "GI50", "setting": "[4]", "value": 20.2, "unit": "µM"}, {"measurement": "TGI", "setting": "[4]", "value": 38.9, "unit": "µM"}, {"measurement": "GI50", "setting": "[5]", "value": 19.9, "unit": "µM"}, {"measurement": "TGI", "setting": "[5]", "value": 39.9, "unit": "µM"}, {"measurement": "GI50", "setting": "[6]", "value": 21.2, "unit": "µM"}, {"measurement": "TGI", "setting": "[6]", "value": 39.9, "unit": "µM"}, {"measurement": "GI50", "setting": "[7]", "value": 42.1, "unit": "µM"}, {"measurement": "TGI", "setting": "[7]", "value": "> 100", "unit": "µM"}, {"measurement": "GI50", "setting": "[8]", "value": 22, "unit": "µM"}, {"measurement": "TGI", "setting": "[8]", "value": 38.5, "unit": "µM"}, {"measurement": "GI50", "setting": "[9]", "value": 20.7, "unit": "µM"}, {"measurement": "TGI", "setting": "[9]", "value": 40.1, "unit": "µM"}, {"measurement": "GI50", "setting": "[10]", "value": 22.8, "unit": "µM"}, {"measurement": "TGI", "setting": "[10]", "value": 49, "unit": "µM"}]}, {"smiles": "c1cc(N2CCN(c3ccc(C4=NCCCN4)cc3)CC2)ccc1C1=NCCCN1", "values": [{"measurement": "GI50", "setting": "[1]", "value": "> 58.7", "unit": "µM"}, {"measurement": "TGI", "setting": "[1]", "value": "> 100", "unit": "µM"}, {"measurement": "GI50", "setting": "[2]", "value": "> 100", "unit": "µM"}, {"measurement": "TGI", "setting": "[2]", "value": "> 100", "unit": "µM"}, {"measurement": "GI50", "setting": "[3]", "value": "> 65.5", "unit": "µM"}, {"measurement": "TGI", "setting": "[3]", "value": "> 100", "unit": "µM"}, {"measurement": "GI50", "setting": "[4]", "value": "> 62.6", "unit": "µM"}, {"measurement": "TGI", "setting": "[4]", "value": "> 100", "unit": "µM"}, {"measurement": "GI50", "setting": "[5]", "value": 71.8, "unit": "µM"}, {"measurement": "TGI", "setting": "[5]", "value": "> 100", "unit": "µM"}, {"measurement": "GI50", "setting": "[6]", "value": "> 35.8", "unit": "µM"}, {"measurement": "TGI", "setting": "[6]", "value": "> 100", "unit": "µM"}, {"measurement": "GI50", "setting": "[7]", "value": "> 100", "unit": "µM"}, {"measurement": "TGI", "setting": "[7]", "value": "> 100", "unit": "µM"}, {"measurement": "GI50", "setting": "[8]", "value": "> 100", "unit": "µM"}, {"measurement": "TGI", "setting": "[8]", "value": "> 100", "unit": "µM"}, {"measurement": "GI50", "setting": "[9]", "value": "> 100", "unit": "µM"}, {"measurement": "TGI", "setting": "[9]", "value": "> 100", "unit": "µM"}, {"measurement": "TGI", "setting": "[10]", "value": "> 35.3", "unit": "µM"}]}, {"smiles": "COc1ccc(/C=C(\\C)[N+](=O)[O-])cc1OC", "values": [{"measurement": "GI50", "setting": "[1]", "value": 3.5, "unit": "µM"}, {"measurement": "TGI", "setting": "[1]", "value": 15.9, "unit": "µM"}, {"measurement": "GI50", "setting": "[2]", "value": 2.16, "unit": "µM"}, {"measurement": "TGI", "setting": "[2]", "value": 5.51, "unit": "µM"}, {"measurement": "GI50", "setting": "[3]", "value": 2.17, "unit": "µM"}, {"measurement": "TGI", "setting": "[3]", "value": "> 100", "unit": "µM"}, {"measurement": "GI50", "setting": "[4]", "value": 2.33, "unit": "µM"}, {"measurement": "TGI", "setting": "[4]", "value": 6.21, "unit": "µM"}, {"measurement": "GI50", "setting": "[5]", "value": 1.97, "unit": "µM"}, {"measurement": "TGI", "setting": "[5]", "value": 4.91, "unit": "µM"}, {"measurement": "GI50", "setting": "[6]", "value": 1.72, "unit": "µM"}, {"measurement": "TGI", "setting": "[6]", "value": 3.18, "unit": "µM"}, {"measurement": "GI50", "setting": "[7]", "value": 1.71, "unit": "µM"}, {"measurement": "TGI", "setting": "[7]", "value": 3.44, "unit": "µM"}, {"measurement": "GI50", "setting": "[8]", "value": 13.9, "unit": "µM"}, {"measurement": "TGI", "setting": "[8]", "value": 27.4, "unit": "µM"}, {"measurement": "GI50", "setting": "[9]", "value": 1.88, "unit": "µM"}, {"measurement": "TGI", "setting": "[9]", "value": 5.1, "unit": "µM"}, {"measurement": "GI50", "setting": "[10]", "value": 1.82, "unit": "µM"}, {"measurement": "TGI", "setting": "[10]", "value": 3.87, "unit": "µM"}]}, {"smiles": "Cc1cc(C)c(C2CNCc3cc4c(cc32)CNCC4c2c(C)cc(C)cc2C)c(C)c1", "note": "(centres undefined)", "values": [{"measurement": "GI50", "setting": "[1]", "value": 3.43, "unit": "µg/mL"}, {"measurement": "TGI", "setting": "[1]", "value": 13.5, "unit": "µg/mL"}, {"measurement": "GI50", "setting": "[2]", "value": 4.68, "unit": "µg/mL"}, {"measurement": "TGI", "setting": "[2]", "value": 18, "unit": "µg/mL"}, {"measurement": "GI50", "setting": "[3]", "value": 1.1, "unit": "µg/mL"}, {"measurement": "TGI", "setting": "[3]", "value": 3.22, "unit": "µg/mL"}, {"measurement": "GI50", "setting": "[4]", "value": 2.42, "unit": "µg/mL"}, {"measurement": "TGI", "setting": "[4]", "value": 11.4, "unit": "µg/mL"}, {"measurement": "GI50", "setting": "[5]", "value": 2.48, "unit": "µg/mL"}, {"measurement": "TGI", "setting": "[5]", "value": 6.43, "unit": "µg/mL"}, {"measurement": "GI50", "setting": "[6]", "value": 2.2, "unit": "µg/mL"}, {"measurement": "TGI", "setting": "[6]", "value": 4.45, "unit": "µg/mL"}, {"measurement": "GI50", "setting": "[7]", "value": 1.83, "unit": "µg/mL"}, {"measurement": "TGI", "setting": "[7]", "value": 3.47, "unit": "µg/mL"}, {"measurement": "GI50", "setting": "[8]", "value": 10.2, "unit": "µg/mL"}, {"measurement": "TGI", "setting": "[8]", "value": 21.8, "unit": "µg/mL"}, {"measurement": "GI50", "setting": "[9]", "value": 2.68, "unit": "µg/mL"}, {"measurement": "TGI", "setting": "[9]", "value": 7.65, "unit": "µg/mL"}, {"measurement": "GI50", "setting": "[10]", "value": 6.7, "unit": "µg/mL"}, {"measurement": "TGI", "setting": "[10]", "value": 15.4, "unit": "µg/mL"}]}, {"smiles": "C[C@@H]1Cc2cc(O)ccc2[C@H]2CC[C@]3(C)/C(=C/COCCN(C)C)CC[C@H]3[C@H]12", "note": "(tested in a mixture with another compound)", "values": [{"measurement": "GI50", "setting": "[1]", "value": 0.0822, "unit": "µM"}, {"measurement": "TGI", "setting": "[1]", "value": 0.436, "unit": "µM"}, {"measurement": "GI50", "setting": "[2]", "value": 0.379, "unit": "µM"}, {"measurement": "TGI", "setting": "[2]", "value": 1.21, "unit": "µM"}, {"measurement": "GI50", "setting": "[3]", "value": 0.256, "unit": "µM"}, {"measurement": "TGI", "setting": "[3]", "value": 0.985, "unit": "µM"}, {"measurement": "GI50", "setting": "[4]", "value": 0.833, "unit": "µM"}, {"measurement": "TGI", "setting": "[4]", "value": 3.15, "unit": "µM"}, {"measurement": "GI50", "setting": "[5]", "value": 0.271, "unit": "µM"}, {"measurement": "TGI", "setting": "[5]", "value": 0.771, "unit": "µM"}, {"measurement": "GI50", "setting": "[6]", "value": 0.105, "unit": "µM"}, {"measurement": "TGI", "setting": "[6]", "value": 0.316, "unit": "µM"}, {"measurement": "GI50", "setting": "[7]", "value": 0.456, "unit": "µM"}, {"measurement": "TGI", "setting": "[7]", "value": 1.46, "unit": "µM"}, {"measurement": "GI50", "setting": "[8]", "value": 0.228, "unit": "µM"}, {"measurement": "TGI", "setting": "[8]", "value": 0.62, "unit": "µM"}, {"measurement": "GI50", "setting": "[9]", "value": 0.122, "unit": "µM"}, {"measurement": "TGI", "setting": "[9]", "value": 0.679, "unit": "µM"}, {"measurement": "GI50", "setting": "[10]", "value": 0.25, "unit": "µM"}, {"measurement": "TGI", "setting": "[10]", "value": 0.625, "unit": "µM"}]}]}
